In ChEMBL document CHEMBL1201862, “PubChem BioAssay data set” (2004):
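Five compound concentrations were applied to cells in 96-well plates for 48 hours; endpoints were derived by simple linear interpolation of the resulting dose-response curve. At the GI50, growth is halved.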 Calls of active or inactive are those of the source. No stated cut-off is given here; in the data, active = GI50 up to about 1.1 µM and inactive = higher.

Key:
Assay in all cases: NCI anticancer screen, dose series, 48 h
NCI-H226 = system: NCI-H226
T47D = system: T47D
HL-60 = system: HL-60
NCI-H460 = system: NCI-H460
RPMI-8226 = system: RPMI-8226
MCF7 = system: MCF7
UACC-62 = system: UACC-62
BT-549 = system: BT-549
SK-OV-3 = system: SK-OV-3
MDA-MB-435 = system: MDA-MB-435
KM12 = system: KM12
HT-29 = system: HT-29
NCI-H522 = system: NCI-H522
786-0 = system: 786-0
OVCAR-3 = system: OVCAR-3
TK-10 = system: TK-10
ACHN = system: ACHN
NCI-H23 = system: NCI-H23
OVCAR-5 = system: OVCAR-5
SNB-19 = system: SNB-19
SF-268 = system: SF-268
EKVX = system: EKVX
HCT-15 = system: HCT-15
SF-295 = system: SF-295
A549 = system: A549
SW-620 = system: SW-620
SK-MEL-2 = system: SK-MEL-2
HCT-116 = system: HCT-116
A498 = system: A498
CCRF-CEM = system: CCRF-CEM
UACC-257 = system: UACC-257
M14 = system: M14
UO-31 = system: UO-31
HCC 2998 = system: HCC 2998
DU-145 = system: DU-145
MDA-N = system: MDA-N
Hs-578T = system: Hs-578T
SF-539 = system: SF-539
HOP-92 = system: HOP-92
RXF 393 = system: RXF 393
SK-MEL-5 = system: SK-MEL-5
COLO 205 = system: COLO 205
SR = system: SR
PC-3 = system: PC-3
HOP-62 = system: HOP-62
MOLT-4 = system: MOLT-4
SN12C = system: SN12C
OVCAR-8 = system: OVCAR-8
CAKI-1 = system: CAKI-1
U-251 = system: U-251
OVCAR-4 = system: OVCAR-4
NCI/ADR-RES = system: NCI/ADR-RES
SK-MEL-28 = system: SK-MEL-28
LOX IMVI = system: LOX IMVI
Malme-3M = system: Malme-3M
MDA-MB-231 = system: MDA-MB-231
K562 = system: K562
IGROV-1 = system: IGROV-1

Measured: GI50

CC1=C(C(=O)OCCO[N+](=O)[O-])C(c2ccccc2[N+](=O)[O-])C(C(=O)OC(C)C)=C(C)N1 (stereo not given)
16.6 µM: HCT-15
inactive: NCI-H226 14 µM | T47D 13 µM | HL-60 39.3 µM | NCI-H460 15.5 µM | RPMI-8226 84.9 µM | MCF7 19.9 µM | UACC-62 14.1 µM | BT-549 16.5 µM | SK-OV-3 21.2 µM | MDA-MB-435 15 µM | KM12 13.8 µM | HT-29 15.7 µM | NCI-H522 16 µM | 786-0 16.6 µM | OVCAR-3 13 µM | TK-10 21.8 µM | ACHN 13.1 µM | NCI-H23 20.7 µM | OVCAR-5 14.9 µM | SNB-19 18 µM | SF-268 20.4 µM | EKVX 18.3 µM | SF-295 15.7 µM | A549 16.3 µM | SW-620 19.2 µM | SK-MEL-2 15.6 µM | HCT-116 15.4 µM | A498 20.7 µM | CCRF-CEM 33.2 µM | UACC-257 15.3 µM | M14 15.8 µM | UO-31 13.2 µM | HCC 2998 16 µM | DU-145 20.7 µM | MDA-N 17.2 µM | Hs-578T 14.8 µM | SF-539 17.7 µM | HOP-92 14.5 µM | RXF 393 14.3 µM | SK-MEL-5 13.9 µM | COLO 205 15.1 µM | SR 44.9 µM | PC-3 8.17 µM | HOP-62 18.2 µM | MOLT-4 40.9 µM | SN12C 17.6 µM | OVCAR-8 22.5 µM | CAKI-1 17 µM | U-251 16.2 µM | OVCAR-4 18 µM | NCI/ADR-RES 16.8 µM | SK-MEL-28 16.5 µM | LOX IMVI 17.7 µM | Malme-3M 17.3 µM | MDA-MB-231 15.6 µM | K562 49.1 µM | IGROV-1 15.6 µM

CC1NC(C(=O)O)Cc2cc(O)c(O)cc21 (stereo not given)
inactive: NCI-H226 > 100 µM | T47D > 100 µM | HL-60 > 100 µM | NCI-H460 > 100 µM | RPMI-8226 > 100 µM | MCF7 > 100 µM | UACC-62 > 100 µM | BT-549 > 100 µM | SK-OV-3 > 100 µM | MDA-MB-435 > 100 µM | KM12 > 100 µM | HT-29 > 100 µM | NCI-H522 > 100 µM | 786-0 > 100 µM | OVCAR-3 > 100 µM | TK-10 > 100 µM | ACHN > 100 µM | NCI-H23 > 100 µM | OVCAR-5 > 100 µM | SNB-19 > 100 µM | SF-268 > 100 µM | EKVX > 100 µM | SF-295 > 100 µM | A549 > 100 µM | SW-620 > 100 µM | SK-MEL-2 > 100 µM | HCT-116 > 100 µM | A498 > 100 µM | CCRF-CEM 91.2 µM | UACC-257 > 100 µM | M14 > 100 µM | UO-31 > 100 µM | HCC 2998 > 100 µM | DU-145 > 100 µM | MDA-N > 100 µM | Hs-578T > 100 µM | SF-539 > 100 µM | HOP-92 > 100 µM | RXF 393 > 100 µM | SK-MEL-5 > 100 µM | COLO 205 > 100 µM | SR > 100 µM | PC-3 > 100 µM | HOP-62 > 100 µM | MOLT-4 > 100 µM | SN12C > 100 µM | OVCAR-8 > 100 µM | CAKI-1 > 100 µM | U-251 > 100 µM | OVCAR-4 > 100 µM | NCI/ADR-RES > 100 µM | SK-MEL-28 > 100 µM | LOX IMVI > 100 µM | Malme-3M > 100 µM | MDA-MB-231 > 100 µM | IGROV-1 > 100 µM
> 100 µM: HCT-15
